Measured values from US20220324865A1 (Bayer Aktiengesellschaft, priority 2018, published 2022).

Target: T1, human EP3 receptor (Homo sapiens, UniProt P43115)
T1 construct: expressed in transfected cells; host or cells: CHO K1 (Chinese Hamster Ovary), stably co-transfected with Galpha16 and mitochondrial clytin
T1 sequence (P43115 1-390): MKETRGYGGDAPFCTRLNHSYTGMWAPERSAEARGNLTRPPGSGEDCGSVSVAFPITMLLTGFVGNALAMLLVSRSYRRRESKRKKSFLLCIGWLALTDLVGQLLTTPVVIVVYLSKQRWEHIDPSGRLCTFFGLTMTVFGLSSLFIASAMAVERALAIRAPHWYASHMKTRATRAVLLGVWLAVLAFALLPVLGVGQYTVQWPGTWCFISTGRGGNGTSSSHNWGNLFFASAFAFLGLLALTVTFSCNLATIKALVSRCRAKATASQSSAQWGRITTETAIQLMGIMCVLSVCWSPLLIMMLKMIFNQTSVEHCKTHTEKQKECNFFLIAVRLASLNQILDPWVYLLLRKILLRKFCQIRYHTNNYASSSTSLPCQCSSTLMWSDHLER
Test: Cellular in vitro assay for determining EP3 receptor activity (human EP3 cell line, sulprostone-stimulated calcium luminescence)
Assay type: cell-based
Details: CHO cells expressing human EP3 and mitochondrial Clytin; antagonist mode, sulprostone at EC50; read-out: EP3 CHO mtCLY ANTAG IC50
Procedure, shortened: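 CHO K1 cells stably expressing human EP3 with Gα16 and mitochondrial Clytin, loaded overnight with coelenterazine. Compounds added 10 min before sulprostone at its EC50; antagonism read immediately as reduced calcium-driven luminescence, quadruplicate points.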

`Cc1c(C(=O)NCC(C)Cn2cccn2)nn2c(C)c(-c3ccc4ccccc4c3)[nH]c(=O)c12` (centres unmarked) [Example 3-7, 3,7-Dimethyl-N-[2-methyl-3-(1H-pyrazol-1-yl)propyl]-6-(2-naphthyl)-4-oxo-4,5-dihydropyrazolo[1,5-a]pyrazine-2-carboxamide] and `Cc1c(C(=O)NC(C)c2ccc(F)cc2)nn2c(C)c(-c3ccc4ccccc4c3)[nH]c(=O)c12` (centres unmarked) [Example 3-21, N-[1-(4-Fluorophenyl)ethyl]-3,7-dimethyl-6-(2-naphthyl)-4-oxo-5H-pyrazolo[1,5-a]pyrazine-2-carboxamide] are within 1.5-fold of each other in IC50: 1.34 nM for the first, 1.8 nM for the second.

`Cc1cccc2ncc(-c3cn4nc(C(=O)N[C@@H](CO)c5ccccc5)c(C(C)C)c4c(=O)[nH]3)cc12` [Example 4-67, N-[(7R)-2-Hydroxy-1-phenylethyl]-6-(5-methylquinolin-3-yl)-4-oxo-3-(propan-2-yl)-4,5-dihydropyrazolo[1,5-a]pyrazine-2-carboxamide] and `Cc1cccc2ncc(-c3cn4nc(C(=O)NC(CN(C)C)c5ccccc5)c(C(C)C)c4c(=O)[nH]3)cc12` (centres unmarked) [Example 4-1, N-[2-(Dimethylamino)-1-phenylethyl]-3-isopropyl-6-(5-methyl-3-quinolyl)-4-oxo-5H-pyrazolo[1,5-a]pyrazine-2-carboxamide] are within 1.5-fold of each other in IC50: 1.55 nM for the first, 1.75 nM for the second.

First: CC(C)(O)[C@@H](NC(=O)c1nn2cc(-c3cccc(Cl)c3)[nH]c(=O)c2c1C1CC1)c1ccc(F)cc1 [6-677]
Second: Cc1cc(-c2cn3nc(C(=O)N[C@@H](c4ccc(F)cc4)C(C)(C)O)c(C4CCC4)c3c(=O)[nH]2)ccc1Cl [6-620]
The IC50 of the first is 3.3-fold lower: 0.45 nM for the first, 1.5 nM for the second.

First: CC(C)(O)[C@@H](NC(=O)c1nn2cc(-c3ccc(Cl)c(F)c3)[nH]c(=O)c2c1C(F)(F)C(F)(F)F)c1ccc(F)cc1 [6-493]
Second: Cc1cc(-c2cn3nc(C(=O)N[C@@H](c4ccc(F)cc4)C(C)(C)O)c(C4CC4(F)F)c3c(=O)[nH]2)ccc1Cl (some centres unmarked) [6-551]
The IC50 of the first is 1.8-fold higher: 2.98 nM for the first, 1.7 nM for the second.

First: C[C@@H](CN1CC(F)C1)NC(=O)c1nn2cc(-c3ccc4ccccc4c3)[nH]c(=O)c2c1C(F)(F)F [6-514]
Second: CCn1cc(CNC(=O)c2nn3cc(-c4ccc5ccccc5c4)[nH]c(=O)c3c2C(F)(F)F)c(C)n1 [6-496]
The IC50 of the first is 7.7-fold higher: 9.25 nM for the first, 1.2 nM for the second.

`Cc1cccc2ncc(-c3cn4nc(C(=O)N[C@H](CCO)c5ccccc5)cc4c(=O)[nH]3)cc12` [Example 1-114, N-[(1R)-3-Hydroxy-1-phenylpropyl]-6-(5-methylquinolin-3-yl)-4-oxo-4,5-dihydropyrazolo[1,5-a]-pyrazine-2-carboxamide] and `Cc1cc(-c2cn3nc(C(=O)N[C@H](CCO)c4ccc(F)cc4)cc3c(=O)[nH]2)ccc1C(F)(F)F` [Example 1-121, N-[(1R)-1-(4-Fluorophenyl)-3-hydroxpropyl]-6-[3-methyl-4-(trifluoromethyl)phenyl]-4-oxo-4,5-dihydropyrazolo[1,5-a]pyrazine-2-carboxamide] are within 1.5-fold of each other in IC50: 3.15 nM for the first, 4.18 nM for the second.

Going from `CC(NC(=O)c1cc2c(=O)[nH]c(-c3ccc4ccccc4c3)cn2n1)c1ccc2c(c1)OCCO2` (centres unmarked) [Example 2-35, N-[1-(2,3-Dihydro-1,4-benzodioxin-6-yl)ethyl]-6-(2-naphthyl)-4-oxo-4,5-dihydropyrazolo[1,5-a]pyrazine-2-carboxamide] to `Cc1ccc(C(C)NC(=O)c2cc3c(=O)[nH]c(-c4ccc5ccccc5c4)cn3n2)cc1` (centres unmarked) [Example 2-44, N-[1-(4-Methylphenyl)ethyl]-6-(2-naphthyl)-4-oxo-4,5-dihydropyrazolo[1,5-a]pyrazine-2-carboxamide], the IC50 falls from 5.3 nM to 1.3 nM (4.1-fold). The second is the more potent here.

Going from `CC(NC(=O)c1cc2c(=O)[nH]c(-c3ccc4ccccc4c3)cn2n1)c1ccc(C(C)(C)C)cc1` (centres unmarked) [Example 2-40, N-[1-(4-tert.-Butylphenyl)ethyl]-6-(2-naphthyl)-4-oxo-4,5-dihydropyrazolo[1,5-a]pyrazine-2-carboxamide] to `CC(C)(O)[C@@H](NC(=O)c1cc2c(=O)[nH]c(-c3ccc4ccccc4c3)cn2n1)c1ccccc1` [Example 1-3, N-[(1S)-2-Hydroxy-2-methyl-1-phenylpropyl]-6-(naphthalen-2-yl)-4-oxo-4,5-dihydropyrazolo-[1,5-a]pyrazine-2-carboxamide], the IC50 falls from 3.15 nM to 0.653 nM (4.8-fold). The second is the more potent here.

First: Cc1ccc(-c2cn3nc(C(=O)N[C@@H](c4ccccc4)C(C)(C)O)c(C(F)(F)F)c3c(=O)[nH]2)cc1F [6-143]
Second: Cc1ccc(-c2cn3nc(C(=O)N[C@@H](c4ccc(F)cc4)C(C)(C)O)c(C4CCC4)c3c(=O)[nH]2)cc1F [6-573]
The IC50 of the first is 3.5-fold higher: 4.35 nM for the first, 1.25 nM for the second. The second is the more potent here.

First: CC(C)c1c(C(=O)N[C@H](C)C2CC2)nn2cc(-c3ccc(Cl)c(F)c3)[nH]c(=O)c12 [6-540]
Second: Cc1cc(-c2cn3nc(C(=O)NC(C)C4CCC4)c(C4CC4)c3c(=O)[nH]2)ccc1Cl (single isomer, unassigned) [6-300]
The IC50 of the first is 3.9-fold lower: 0.85 nM for the first, 3.3 nM for the second. The first is the more potent here.

Compared with `Cc1ccc(-c2cn3nc(C(=O)NC(C)c4ccc(O)cc4)cc3c(=O)[nH]2)cc1C` (single isomer, unassigned) [6-349], `Cc1ccc(-c2cn3nc(C(=O)NC(C)c4ccc(F)cc4)cc3c(=O)[nH]2)cc1C(F)(F)F` (centres unmarked) [6-25] is 10-fold higher in IC50: 0.88 nM for the first, 9.1 nM for the second.

First: Cc1cccc2ncc(-c3cn4nc(C(=O)Nc5ccnn5C)c(C(C)C)c4c(=O)[nH]3)cc12 [Example 4-19, N-(1-Methyl-1H-pyrazol-5-yl)-6-(5-methylquinolin-3-yl)-4-oxo-3-(propan-2-yl)-4,5-dihydropyrazolo[1,5-a]pyrazine-2-carboxamide]
Second: COc1ccc(C(C)NC(=O)c2nn3cc(-c4cnc5cccc(C)c5c4)[nH]c(=O)c3c2C(C)C)cc1 (centres unmarked) [Example 4-7, 3-Isopropyl-N-[1-(4-methoxyphenyl)ethyl]-6-(5-methyl-3-quinolyl)-4-oxo-5H-pyrazolo[1,5-a]pyrazine-2-carboxamide]
The IC50 of the first is 1.5-fold higher: 1.75 nM for the first, 1.14 nM for the second. The second is the more potent here.

Going from `O=C(N[C@H](CCO)c1ccc(F)cc1)c1nn2cc(-c3ccc(Cl)cc3)[nH]c(=O)c2c1C1CC1` [6-674] to `Cc1cc(-c2cn3nc(C(=O)N[C@@H](c4ccc(F)cc4)C(C)(C)O)c(C4CC4)c3c(=O)[nH]2)c(F)cc1Cl` [6-594], the IC50 falls from 0.79 nM to 0.46 nM (1.7-fold).

Compared with `Cc1ccc(-c2cn3nc(C(=O)NC(C(C)C)C(O)C(F)(F)F)cc3c(=O)[nH]2)cc1C` (centres unmarked) [6-351], `CC[C@@H](C)NC(=O)c1nn2cc(-c3ccc(C)c(C)c3)[nH]c(=O)c2c1C(F)(F)F` [6-113] is 2.1-fold lower in IC50: 7 nM for the first, 3.4 nM for the second.

Going from `Cc1ccc(-c2cn3nc(C(=O)NC4(c5ccc(F)cc5)CC4)cc3c(=O)[nH]2)cc1C` [6-24] to `C[C@@H](NC(=O)c1cc2c(=O)[nH]c(-c3ccc4c(c3)COCC4)cn2n1)c1ccc(F)cc1` [Example 1-112, 6-(3,4-Dihydro-1H-2-benzopyran-7-yl)-N-[(1R)-1-(4-fluorophenyl)ethyl]-4-oxo-4,5-dihydropyrazolo[1,5-a]pyrazine-2-carboxamide], the IC50 rises from 2.03 nM to 3.35 nM (1.7-fold).

Compared with `Cc1cccc2ncc(-c3cn4nc(C(=O)NCCOCC(F)(F)F)c(C(C)C)c4c(=O)[nH]3)cc12` [Example 4-39, 6-(5-Methylquinolin-3-yl)-4-oxo-3-(propan-2-yl)-N-[2-(2,2,2-trifluoroethoxy)ethyl]-4,5-dihydropyrazolo[1,5-a]pyrazine-2-carboxamide], `Cc1cc(-c2cn3nc(C(=O)NCC(N)C(F)(F)F)c(C4CC4)c3c(=O)[nH]2)ccc1C(F)(F)F` (single isomer, unassigned) [6-132] is 4.1-fold higher in IC50: 1.85 nM for the first, 7.6 nM for the second.

Going from `O=C(Nc1cccc2ncccc12)c1cc2c(=O)[nH]c(-c3ccc4ccccc4c3)cn2n1` [Example 2-45, N-(Chinolin-5-yl)-6-(2-naphthyl)-4-oxo-4,5-dihydropyrazolo[1,5-a]pyrazine-2-carboxamide] to `C[C@@H](NC(=O)c1cc2c(=O)[nH]c(-c3ccc4cccc(F)c4c3)cn2n1)c1ccc(F)cc1` [6-38], the IC50 falls from 6.05 nM to 1.45 nM (4.2-fold).

Compared with `CCn1cc(CNC(=O)c2nn3cc(-c4ccc(C)c(C)c4)[nH]c(=O)c3c2Cl)c(C)n1` [6-112], `COc1ccc(CCNC(=O)c2cc3c(=O)[nH]c(-c4ccc(C)c(Cl)c4)cn3n2)cc1OC` [6-15] is 2.1-fold higher in IC50: 1.14 nM for the first, 2.37 nM for the second. The first is the more potent here.

Going from `CN1CC(NC(=O)c2nn3cc(-c4ccc5ccccc5c4)[nH]c(=O)c3c2C2CC2)(c2ccc(F)cc2)C1` [Example 1-82, 3-Cyclopropyl-N-[3-(4-fluorophenyl)-1-methylazetidin-3-yl]-6-(naphthalen-2-yl)-4-oxo-4,5-dihydropyrazolo[1,5-a]pyrazine-2-carboxamide] to `CC(C)(C)OC(=O)N1CC(C(NC(=O)c2cc3c(=O)[nH]c(-c4ccc5ccccc5c4)cn3n2)c2ccc(F)cc2)C1` (racemic) [Example 1-157, tert-Butyl 3-[(4-fluorophenyl)-[[6-(2-naphthyl)-4-oxo-5H-pyrazolo[1,5-a]pyrazine-2-carbonyl]amino]-methyl]azetidine-1-carboxylate (Racemate)], the IC50 falls from 4.6 nM to 2.2 nM (2.1-fold). The second is the more potent here.

Going from `O=C(NCc1ncc(C(F)(F)F)cc1Cl)c1nn2cc(-c3ccc4ccccc4c3)[nH]c(=O)c2c1C(F)(F)F` [6-8] to `Cc1ccc(-c2cn3nc(C(=O)NC(c4ccc(C(F)(F)F)cc4)C(C)(C)O)c(C4CC4)c3c(=O)[nH]2)cc1C` (single isomer, unassigned) [6-459], the IC50 rises from 1.05 nM to 5.6 nM (5.3-fold). The first is the more potent here.

With `COCc1c(C(=O)N[C@@H](c2ccc(F)cc2)C(C)(C)O)nn2cc(-c3ccc(Cl)c(C)c3)[nH]c(=O)c12` [6-623] the IC50 was 3.15 nM.
